# Patent US20230043863A1, “HETEROAROMATIC DERIVATIVES FOR USE AS REGULATOR, PREPARATION METHOD THEREFOR AND USE THEREOF” (JIANGSU HANSOH PHARMACEUTICAL GROUP CO., LTD., priority 2018, published 2023)
# Read-outs that look alike come from different tables or passages of the source.
# Tests used:
# JAK2 = JAK2 (Homo sapiens, UniProt O60674); test: JAK kinase activity inhibition, TR-FRET (JAK2); format: biochemical; details: TR-FRET kinase assay
# How it was run: (§1)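 Steps: compound dilutions added; JAK kinase (0.1-20 nM) in HEPES/MgCl2 buffer added; peptide substrate and ATP mix started the reaction, 0.5-5 h at room temperature; EDTA and labeled antibody added, 1-24 h further. IC50 derived from 620/665 nm signals by four-parameter nonlinear fitting.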
# [1] = Balb/C mouse pharmacokinetics (plasma, colon, ileum); format: in vivo; details: male, po, Balb/C mice, p.o. 5 mg/kg; for Cmax: read-out: Blood concentration Cmax; for AUC(0-t): read-out: Curve area AUC0-t; for MRT: read-out: Mean detention time MRT; for Tmax: read-out: Time to peak tmax; for AUC(0-inf): read-out: Curve area AUC0-∞; for half-life: read-out: Half life period t1/2 (converted)
# How it was run: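 Male Balb/C mice (12 per group), fasted overnight, given 5 mg/kg p.o.; plasma, ileum and colon sampled at 0–7 h. Drug levels by LC/MS/MS, […]; parameters include colon/ileum and colon/plasma concentration ratios.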
# TYK2 = TYK2 (Homo sapiens, UniProt P29597); test: JAK kinase activity inhibition, TR-FRET (TYK2); format: biochemical; details: TR-FRET kinase assay
# How it was run: as §1
# Sequence of JAK2 (O60674 whole entry): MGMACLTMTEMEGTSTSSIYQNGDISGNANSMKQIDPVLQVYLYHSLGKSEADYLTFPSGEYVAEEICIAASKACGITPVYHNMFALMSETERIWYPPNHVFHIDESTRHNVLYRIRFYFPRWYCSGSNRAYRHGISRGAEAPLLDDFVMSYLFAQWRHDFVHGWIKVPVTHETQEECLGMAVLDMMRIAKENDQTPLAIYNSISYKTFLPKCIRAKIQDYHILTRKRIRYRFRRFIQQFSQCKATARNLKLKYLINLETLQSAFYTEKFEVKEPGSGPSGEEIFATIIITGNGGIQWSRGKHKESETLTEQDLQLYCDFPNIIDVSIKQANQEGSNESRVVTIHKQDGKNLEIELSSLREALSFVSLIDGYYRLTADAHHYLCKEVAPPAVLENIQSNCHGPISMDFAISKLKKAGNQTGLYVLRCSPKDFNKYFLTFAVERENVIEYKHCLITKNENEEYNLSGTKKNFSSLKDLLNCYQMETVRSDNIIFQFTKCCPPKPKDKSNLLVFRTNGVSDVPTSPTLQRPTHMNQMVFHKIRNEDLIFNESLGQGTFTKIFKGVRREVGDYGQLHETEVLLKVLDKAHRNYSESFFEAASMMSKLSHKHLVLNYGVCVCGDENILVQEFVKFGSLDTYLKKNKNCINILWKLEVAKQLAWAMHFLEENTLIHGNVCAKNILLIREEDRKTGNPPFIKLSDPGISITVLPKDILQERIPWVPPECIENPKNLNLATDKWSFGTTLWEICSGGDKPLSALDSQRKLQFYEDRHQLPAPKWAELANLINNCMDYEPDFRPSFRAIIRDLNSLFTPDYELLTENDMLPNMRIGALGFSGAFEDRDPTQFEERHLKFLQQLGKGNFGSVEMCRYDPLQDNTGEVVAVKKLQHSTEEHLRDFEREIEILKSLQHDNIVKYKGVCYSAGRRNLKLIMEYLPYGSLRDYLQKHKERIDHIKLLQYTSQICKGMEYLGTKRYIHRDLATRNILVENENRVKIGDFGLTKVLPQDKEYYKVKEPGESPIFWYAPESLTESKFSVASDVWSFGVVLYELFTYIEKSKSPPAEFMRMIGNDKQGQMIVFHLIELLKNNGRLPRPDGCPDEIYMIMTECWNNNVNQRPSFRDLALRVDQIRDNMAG
# Sequence of TYK2 (P29597 whole entry): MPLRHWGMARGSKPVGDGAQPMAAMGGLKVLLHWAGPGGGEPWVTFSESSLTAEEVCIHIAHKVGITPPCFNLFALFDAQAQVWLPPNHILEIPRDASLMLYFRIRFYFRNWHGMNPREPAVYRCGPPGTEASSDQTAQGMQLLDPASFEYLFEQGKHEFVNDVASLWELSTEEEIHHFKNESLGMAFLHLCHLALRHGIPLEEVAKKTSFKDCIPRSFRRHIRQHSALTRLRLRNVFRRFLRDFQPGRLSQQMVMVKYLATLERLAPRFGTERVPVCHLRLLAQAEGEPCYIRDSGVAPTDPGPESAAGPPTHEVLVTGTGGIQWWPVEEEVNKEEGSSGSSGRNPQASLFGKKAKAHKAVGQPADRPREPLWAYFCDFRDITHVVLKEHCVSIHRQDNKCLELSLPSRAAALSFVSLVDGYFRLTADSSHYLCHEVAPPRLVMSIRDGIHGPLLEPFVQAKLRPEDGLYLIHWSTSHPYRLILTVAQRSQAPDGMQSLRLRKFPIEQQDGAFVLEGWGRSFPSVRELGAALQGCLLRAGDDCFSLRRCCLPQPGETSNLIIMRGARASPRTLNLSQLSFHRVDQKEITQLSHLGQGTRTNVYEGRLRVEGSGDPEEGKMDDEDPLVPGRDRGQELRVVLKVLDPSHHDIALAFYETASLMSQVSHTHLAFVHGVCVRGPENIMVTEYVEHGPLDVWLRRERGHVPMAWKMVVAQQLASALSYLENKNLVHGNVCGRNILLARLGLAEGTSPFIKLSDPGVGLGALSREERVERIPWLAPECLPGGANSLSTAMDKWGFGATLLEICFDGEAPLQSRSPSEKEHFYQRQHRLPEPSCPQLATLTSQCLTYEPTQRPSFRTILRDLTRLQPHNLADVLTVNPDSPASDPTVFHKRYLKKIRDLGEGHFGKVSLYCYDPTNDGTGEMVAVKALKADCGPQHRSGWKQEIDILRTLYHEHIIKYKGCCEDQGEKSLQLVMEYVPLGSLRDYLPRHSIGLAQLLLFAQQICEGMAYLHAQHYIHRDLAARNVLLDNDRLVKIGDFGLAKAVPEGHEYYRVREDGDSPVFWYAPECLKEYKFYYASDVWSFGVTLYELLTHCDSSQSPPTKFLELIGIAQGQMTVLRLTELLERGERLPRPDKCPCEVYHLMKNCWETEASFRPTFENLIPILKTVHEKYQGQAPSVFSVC
Structure (SMILES),IC50 (JAK2) [nM],"Cmax ([1]; plasma, blood) [ng/mL]","AUC(0-t) ([1]; plasma, blood) [ng·h/mL]","MRT ([1]; plasma, blood) [h]","Tmax ([1]; plasma, blood) [h]",Cmax ([1]; colon) [ng/mL],AUC(0-t) ([1]; colon) [ng·h/mL],MRT ([1]; colon) [h],Tmax ([1]; colon) [h],Cmax ([1]; ileum) [ng/mL],AUC(0-t) ([1]; ileum) [ng·h/mL],AUC(0-inf) ([1]; ileum) [ng·h/mL],half-life ([1]; ileum) [min],MRT ([1]; ileum) [h],Tmax ([1]; ileum) [h],IC50 (TYK2) [nM],"AUC(0-inf) ([1]; plasma, blood) [ng·h/mL]","half-life ([1]; plasma, blood) [min]"
"Cc1cc(Nc2nc(N[C@@H]3C[C@H]4CCC[C@@H](C3)N4C(=O)CN3CCOCC3)nc3sccc23)n[nH]1 [Embodiment 246, 1-((3-exo)-3-((4-((5-methyl-1H-pyrazol-3-yl)amino)thieno[2,3-d]pyrimidin-2-yl)amino)-9-azabicyclo[3.3.1]non-9-yl)-2-morpholinoethane-1-one]",0.71,5.56,4.76,1.46,2,3260,13800,4.79,7,16800,27900,28400,109,1.28,1,1.88,–,–
"CNCC(=O)N1[C@@H]2CCC[C@H]1C[C@H](Nc1nc(Nc3cc(C)[nH]n3)c3ccsc3n1)C2 [Embodiment 247, 1-((3-exo)-3-((4-((5-methyl-1H-pyrazol-3-yl)amino)thieno[2,3-d]pyrimidin-2-yl)amino)-9-azabicyclo[3.3.1]non-9-yl)-2-(methylamino)-ethane-1-one]",0.73,–,–,–,–,2270,10200,4.05,3,13800,24700,24900,55.2,1.39,1,0.12,–,–
"Cc1cc(Nc2nc(N(C)[C@@H]3C[C@H]4CCC[C@@H](C3)N4C(=O)CN3CCN(C)CC3)nc3sccc23)n[nH]1 [Embodiment 257, 1-((3-exo)-3-(methyl(4-((5-methyl-1H-pyrazol-3-yl)amino)thieno[2,3-d]pyrimidin-2-yl)amino)-9-azabicyclo[3.3.1]non-9-yl)-2-(4-methylpiperazin-1-yl)ethane-1-one]",0.83,33.9,64.7,2.18,1,3990,12300,4.24,5,25800,104000,123000,119,3.07,3,0.2,64.8,73.2
"Cc1cc(Nc2nc(N[C@@H]3C[C@H]4CCC[C@@H](C3)N4C(=O)c3ccccn3)nc3sccc23)n[nH]1 [Embodiment 260, ((3-exo)-3-((4-((5-methyl-1H-pyrazol-3-yl)amino)thieno[2,3-d]pyrimidin-2-yl)amino)-9-azabicyclo[3.3.1]non-9-yl)(pyridin-2-yl)methanone]",0.36,24,27.3,1.37,1,8880,24400,3.39,3,9080,18500,18700,60.6,1.57,1,0.225,29.4,94.2
"Cc1cc(Nc2nc(N[C@@H]3C[C@H]4CC[C@@H](C3)N4CCC#N)nc3sc(C)cc23)n[nH]1 [Embodiment 277, 3-((3-exo)-3-((6-methyl-4-((5-methyl-1H-pyrazol-3-yl)amino)thieno[2,3-d]pyrimidin-2-yl)amino)-8-azabicyclo[3.2.1]oct-8-yl)propionitrile]",1.01,12,29.1,2.53,2,649,2890,3.89,7,18700,43000,43300,55.2,1.77,1,0.58,31.1,57.6
"Cc1cc(Nc2nc(N[C@@H]3C[C@H]4CCC[C@@H](C3)N4CCC#N)nc3scnc23)n[nH]1 [Embodiment 278, 3-((3-exo)-3-((7-((5-methyl-1H-pyrazol-3-yl)amino)thiazolo[5,4-d]pyrimidin-5-yl)amino)-9-azabicyclo[3.3.1]non-9-yl)propionitrile]",1.34,1.79,3.62,1.5,0.5,1300,4640,4.26,5,3700,6240,6260,57,1.28,1,0.98,–,–
